From paper PMC12566703, “Design, Synthesis, In Vitro and In Silico Biological Evaluation of New Pyridine-2,5-Dicarboxylates Esters Bearing Natural Source Fragments as Anti-Trypanosomatid Agents” (Pharmaceutics, 2025)
Read-outs that look alike come from different tables or passages of the source.

What was measured:
[1] = tested on: T. cruzi (A1) epimastigotes; test: In vitro trypanocidal activity, Alamar Blue assay, 48 h; format: cell-based, Trypanosoma cruzi; conditions: for Selectivity Index T. cruzi A1: CC50 (J774.2)/IC50; for IC50: 48 h, read-out: T. cruzi IC50 (µM ± SD) A1
Method: (§1) Both strains were maintained in liver infusion tryptose (LIT) medium supplemented with 10% FBS and 0.1% penicillin-streptomycin. They were preserved by transferring 1 × 10^6 parasites/mL into a new culture medium every week. […] The metabolic activity was determined by the Alamar Blue assay. Briefly, after the incubation period, 20 µL of 2.5 mM resazurin solution was added to each well and incubated for 3 h. Three independent experiments were performed in triplicate. The half-maximum inhibitory concentration (IC50) was determined using probit analysis.

[2] = tested on: T. cruzi (NINOA) epimastigotes; test: as above; format: cell-based, Trypanosoma cruzi; conditions: for Selectivity Index T. cruzi NINOA: CC50 (J774.2)/IC50; for IC50: 48 h, read-out: T. cruzi IC50 (µM ± SD) NINOA; for IC50 / Trypanocidal activity class in words, NINOA strain: epimastigotes, NINOA strain; for Trypanocidal activity class in words, NINOA strain: classes by IC50
Method: as §1

[3] = tested on: L. mexicana (MHOM/MX/2017/UABJO17FCQEPS) (FCQEPS) promastigotes; test: In vitro leishmanicidal activity, MTT method, 48 h; format: cell-based, Leishmania mexicana; conditions: for Selectivity Index L. mexicana FCQEPS: CC50 (J774.2)/IC50; for IC50: Leishmania mexicana, 48 h, read-out: L. mexicana IC50 (µM ± SD) FCQEPS
Method: (§2) To determine the leishmanicidal activity of pyridine-2,5-dicarboxylates, the parasites, in their logarithmic growth phase (5 × 10^5 parasites/mL), were cultured in 96-well microliter plates with the corresponding pyridine-2,5-dicarboxylate compound at different concentrations (0.78–100 µM). Compounds were dissolved in DMSO in a final volume of 200 µL for 48 h at 26 °C. Parasites treated with DMSO (0.2%) were used as a negative control, while treatments with Glucantime and Amphotericin B, at the same concentrations, were used as positive controls. The metabolic activity of the cells was determined using the 3-(4,5-Dimethylthiazol-2-yl)-2,5-diphenyltetrazolium bromide (MTT) method. IC50 was determined using probit analysis. Three independent experiments were performed in triplicate, and the data were analyzed for statistical significance (p < 0.05) using Biostat 5.3.0 software.

[4] = tested on: L. mexicana (MNYC/BZ/62/M379) (M379) promastigotes; test: In vitro leishmanicidal activity, MTT method, 48 h; format: cell-based, Leishmania mexicana; conditions: for Selectivity Index L. mexicana M379: CC50 (J774.2)/IC50; for IC50: Leishmania mexicana, 48 h, read-out: L. mexicana IC50 (µM ± SD) M379; for IC50 / Leishmanicidal activity class in words, M379 strain: promastigotes, M379 strain; for Leishmanicidal activity class in words, M379 strain: classes by IC50
Method: as §2

[5] = Cytotoxicity assay, MTT method, 48 h; format: cell-based, murine; conditions: mouse, J774.2 macrophage cells, J774.2 cell line, read-out: Macrophage J774.2 CC50 (µM ± SD)
Method: A cytotoxicity assay was performed using the murine macrophage J774.2 cell line, which was recloned from the original ascites and solid tumor J774.1 (according to the manufacturer). The cells were cultured in RPMI medium supplemented with 10% SBF, 100 U […] penicillin, 100 µg/mL streptomycin, and glutamine (2 mM), and 5% CO2 atmosphere. The medium was changed every 2–3 days. Macrophages were used at 1 × 10^6 cells and were incubated with compounds at different concentrations (0.75–100 µM, respectively) at 37 °C for 48 h in a 5% CO2 atmosphere. DMSO was used as a negative control (0.2%). The metabolic activity of macrophages was determined by the MTT method. The percentage of cell viability was calculated, and the half-maximal cytotoxic concentration (CC50) was determined using probit analysis. Three independent assays were conducted in triplicate.

[6] = Trypanosoma cruzi, epimastigotes, A1 strain

Row | Compound | Selectivity Index T. cruzi A1 [1] | IC50 [1, 6] | Trypanocidal activity class in words, A1 strain ([1]; epimastigotes, A1 strain, classes by IC50) | Selectivity Index T. cruzi NINOA [2] | Selectivity Index L. mexicana FCQEPS [3] | IC50 ([3]; promastigotes, FCQEPS strain) | Selectivity Index L. mexicana M379 [4] | IC50 [4] | Leishmanicidal activity class in words, M379 strain [4] | CC50 at 48 h [5] | IC50 ([2]; Trypanosoma cruzi) | Trypanocidal activity class in words, NINOA strain [2] | IC50 [2] | IC50 ([1]; epimastigotes, A1 strain) | Leishmanicidal activity class in words, FCQEPS strain ([3]; promastigotes, FCQEPS strain, classes by IC50)
1 | CCOC(=O)c1nc(C)c(C(=O)OCC=Cc2ccccc2)cc1-c1ccc(C)cc1 [Compound 7b] | >1 | > 200 µM | completely lose their trypanocidal activity | >2.0 | >1.7 | 116.71 ± 0.03 µM | >1 | > 200 µM | did not have antiparasitic activity | > 200 µM |  |  |  |  | 
2 | CCOC(=O)c1nc(C)c(C(=O)OCC=Cc2ccccc2)cc1-c1ccc(F)cc1 [Compound 7c] | >8.8 | 22.8 ± 0.69 µM |  | >3.1 | >1 | > 200 µM | >1 | > 200 µM | inactive | > 200 µM | 63.1 ± 1.64 µM |  |  |  | 
3 | CCOC(=O)c1nc(C)c(C(=O)O[C@@H]2C[C@@H](C)CC[C@@H]2C(C)C)cc1-c1ccccc1 [Compound 8a] | >1 | > 200 µM |  | >1 | >2.4 | 82.7 µM | >2.5 | 79.1 µM |  | > 200 µM |  | inactive |  |  | 
4 | CCOC(=O)c1nc(C)c(C(=O)O[C@@H]2C[C@@H](C)CC[C@@H]2C(C)C)cc1-c1ccc(C)cc1 [Compound 8b] | >3.9 |  |  | >1.8 | >1 |  | >1 |  |  | > 200 µM | 106.9 ± 0.5 µM | slight activity | > 200 µM |  | 
5 | CCOC(=O)c1nc(C)c(C(=O)O[C@@H]2C[C@@H](C)CC[C@H]2C(C)C)cc1-c1ccc(F)cc1 [Compound 8c, 2-Ethyl 5-((1R,2S,5S)-2-isopropyl-5-methylcyclohexyl) 3-(4-fluorophenyl)-6-methylpyridine-2,5-dicarboxylate] | >9.2 |  |  | >4.3 | >2.2 | 90.9 ± 5 µM | >1 | > 200 µM |  | > 200 µM | ≤ 56.7 µM |  | 46 ± 3.33 µM |  | 
6 | CCOC(=O)c1nc(C)c(C(=O)OC2C[C@@H]3CC[C@@]2(C)C3(C)C)cc1-c1ccccc1 (stereo partly shown) [Compound 9a] | >8.0 | < 29 µM |  | >3.6 | >1 | > 200 µM | >1 | > 200 µM | did not have antiparasitic activity | > 200 µM | 55.8 ± 2.5 µM | moderately active (moderately active (IC50 41 to 100 µM)) |  | 25 ± 2.98 µM | did not have leishmanicidal activity
7 | CCOC(=O)c1nc(C)c(C(=O)O[C@@H]2C[C@H]3CC[C@@]2(C)C3(C)C)cc1-c1ccc(C)cc1 [Compound 9b, 2-Ethyl 5-((1S,2R,4R)-1,7,7-trimethylbicyclo[2.2.1]heptan-2-yl) 6-methyl-3-(p-tolyl)pyridine-2,5-dicarboxylate] | >5.2 | < 40 µM |  |  | >2.5 |  | >5.0 |  |  | > 200 µM | < 40 µM |  | 22.3 ± 1.6 µM | 38.5 µM | 
